Target: α7 nAChR Subtype (Rattus norvegicus, UniProt Q05941)
Type: binding
Settings: read-out: KD of radioligand

Chain of α7 nAChR Subtype (Q05941 23-502 limits assumed): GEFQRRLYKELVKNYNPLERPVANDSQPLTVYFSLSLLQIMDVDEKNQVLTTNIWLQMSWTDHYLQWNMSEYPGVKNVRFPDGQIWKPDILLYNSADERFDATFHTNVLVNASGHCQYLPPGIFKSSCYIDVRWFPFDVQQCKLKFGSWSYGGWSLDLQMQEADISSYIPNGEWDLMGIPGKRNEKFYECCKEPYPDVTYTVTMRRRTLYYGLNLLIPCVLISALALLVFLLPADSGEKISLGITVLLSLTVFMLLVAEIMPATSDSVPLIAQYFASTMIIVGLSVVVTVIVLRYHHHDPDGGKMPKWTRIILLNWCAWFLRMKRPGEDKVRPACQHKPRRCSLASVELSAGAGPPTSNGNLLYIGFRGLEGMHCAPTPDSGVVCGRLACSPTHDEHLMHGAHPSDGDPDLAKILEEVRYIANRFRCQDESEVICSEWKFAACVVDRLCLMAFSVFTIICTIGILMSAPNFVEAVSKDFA

## [^125I]α-Bungarotoxin [[^125I]-α-BTX]
  Kd: 1.67 nM
